# In patent US7410975B2, “Small molecule toll-like receptor (TLR) antagonists” (Coley Pharmaceutical Group, Inc., priority 2003, dated 2008):
# Counter-ions that a name gives are not always drawn.
# Target: T1, human TLR3 (hTLR3) (Homo sapiens, UniProt O15455)
# T1 construct: expressed in transfected cells
# T1 sequence (O15455 24-904): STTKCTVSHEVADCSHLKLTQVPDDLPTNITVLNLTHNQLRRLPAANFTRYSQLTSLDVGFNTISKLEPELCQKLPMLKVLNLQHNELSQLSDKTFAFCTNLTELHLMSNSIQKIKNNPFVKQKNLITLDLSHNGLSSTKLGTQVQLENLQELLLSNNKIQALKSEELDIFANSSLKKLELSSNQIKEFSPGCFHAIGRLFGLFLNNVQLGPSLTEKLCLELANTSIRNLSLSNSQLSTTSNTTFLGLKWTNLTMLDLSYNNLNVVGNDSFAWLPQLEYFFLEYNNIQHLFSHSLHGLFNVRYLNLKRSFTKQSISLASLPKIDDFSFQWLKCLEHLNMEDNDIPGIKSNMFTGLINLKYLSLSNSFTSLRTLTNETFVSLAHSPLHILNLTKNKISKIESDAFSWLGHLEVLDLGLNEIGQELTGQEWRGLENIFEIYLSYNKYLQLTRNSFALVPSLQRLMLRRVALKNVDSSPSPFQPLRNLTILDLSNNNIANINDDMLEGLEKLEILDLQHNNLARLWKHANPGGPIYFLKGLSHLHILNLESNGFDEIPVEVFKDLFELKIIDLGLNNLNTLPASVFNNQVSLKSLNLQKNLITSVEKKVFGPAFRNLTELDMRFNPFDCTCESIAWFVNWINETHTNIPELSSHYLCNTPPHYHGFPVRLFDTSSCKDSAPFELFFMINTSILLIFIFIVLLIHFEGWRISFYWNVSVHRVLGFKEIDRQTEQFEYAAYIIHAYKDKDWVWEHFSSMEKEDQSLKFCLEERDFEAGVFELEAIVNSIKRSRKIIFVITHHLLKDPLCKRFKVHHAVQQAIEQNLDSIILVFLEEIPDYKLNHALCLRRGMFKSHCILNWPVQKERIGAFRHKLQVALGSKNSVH
# Assay: Antagonist screen, hTLR3-NFκB-293 cells, NF-κB-luciferase reporter, with EC50 of poly(I:C)
# Assay type: cell-based
# Conditions: compound at 0.5, 5, 50 μg/ml; EC50 concentration of poly(I:C); 16 h; NF-κB-luciferase
# Description: The method is described in greater detail as follows. The cells for each individual cell clone (hTLR3-NFκB-293, hTLR7-NFκB-293, hTLR8-NFκB-293 and hTLR9-NFκB-293) were counted and seeded one day before the stimulation at 1.5×10^4 cells per well in 96-well cell culture plates. To become adherent the cells were incubated after seeding overnight at 37° C. in 5% CO2 humidified air.
# The screen for each compound was performed at the same time for all of the receptors TLR3, TLR7, TLR8 and TLR9. Up to fifteen test compounds, each assayed in duplicate at each of three different final concentrations (0.5 μg/ml, 5 μg/ml, and 50 μg/ml), were used for 16 h cell stimulation on a single multiwell culture plate. A 4× final concentration master plate was created to prepare the different test compounds before they were added to the cells.
# Controls were added as duplicates individually for each cell clone on the cell culture plate. Positive controls were used as follows (final concentrations): 50 μg/ml poly(I:C) for hTLR3-NFκB-293; 8 μM resiquimod (R848) for hTLR7-NFκB-293; 30 μM R848 for hTLR8-NFκB-293; and 2.5 μM CpG-ODN 2006 for hTLR9-NFκB-293. Media alone was used as negative control. After addition of controls and small molecules, the cell clones were additionally stimulated with the EC50 concentration of the appropriate receptor-specific ligand.
# The mean value of wells H2 and H5 (each with cells and EC50 concentration of the appropriate receptor-specific ligand) divided by the mean of wells H3 and H6 (each with cells alone) yielded the baseline response (i.e., fold induction of luciferase activity) to EC50 concentration of the appropriate receptor-specific ligand.
# After 16 h stimulation the supernatant was removed and the cells treated with lysis buffer and stored at −80° C. before measuring.
# For each screen result a graphical documentation was performed.
# The baseline result (measured with addition of the EC50 concentration of the receptor-specific ligand) for each cell culture plate was measured as described above. Antagonistic effects were measured by down regulation compared to the baseline. Antagonists were scored as follows: • 13: compounds for which there was clear down regulation at 0.5 μg/ml, 5 μg/ml, and 50 μg/ml; • 12: compounds for which there was clear down regulation at 5 μg/ml and 50 μg/ml; • 11: compounds for which there was clear down regulation only at 50 μg/ml; • —: compounds for which there was no clear down regulation even at 50 μg/ml. Agonists
# Results were expressed as fold induction over baseline luciferase activity measured in the absence of poly(I:C). […] Additional screening was performed in like manner using additional small molecules selected from another library or specifically prepared for this purpose. Scoring is reported as above but as applied to TLR3.
row,Compound,"hTLR3 (inhibitory effect, antagonist score)"
1,"Cc1nccc2c1[nH]c1ccccc12 [compound 620, Harmane hydrochloride]",— (compounds for which there was no clear down regulation even at 50 μg/ml)
2,"COc1ccc2c(c1)N(CC(C)CN(C)C)c1ccccc1S2.O=C(O)/C=C\C(=O)O (stereo not shown) [compound 797, Methotrimeprazinemaleat salt]",11 (compounds for which there was clear down regulation only at 50 μg/ml)
3,"C[C@]12N[C@H](Cc3ccccc31)c1ccccc12.O=C(O)/C=C\C(=O)O [compound 109, Dizocilpine maleate]",— (compounds for which there was no clear down regulation even at 50 μg/ml)
4,"CN(C)CC/C=C1/c2ccccc2Sc2ccc(Cl)cc21.Cl [compound 348, Chlorprothixenehydrochloride]",11 (compounds for which there was clear down regulation only at 50 μg/ml)
5,"Nc1cccc2c1C(=O)c1cccc(N)c1C2=O [compound 413, Anthraquinone,1,5-diamino]",11 (compounds for which there was clear down regulation only at 50 μg/ml)
6,CC(=O)Oc1cc(C)c(C2(c3cc(C(C)C)c(OC(C)=O)cc3C)OC(=O)c3ccccc32)cc1C(C)C [compound 1161],12 (compounds for which there was clear down regulation at 5 μg/ml and 50 μg/ml)
7,"CN(C)CCCN1c2ccccc2Sc2ccc(Cl)cc21.Cl [compound 64, Chlorpromazinehydrochloride]",11 (compounds for which there was clear down regulation only at 50 μg/ml)
8,"CN1CCN(CCCN2c3ccccc3Sc3ccc(S(=O)(=O)N(C)C)cc32)CC1.CS(=O)(=O)O.CS(=O)(=O)O [compound 149, Thioproperasinedimesylate]",— (compounds for which there was no clear down regulation even at 50 μg/ml)
9,"COC(=O)[C@H]1[C@H]2C[C@@H]3c4[nH]c5cc(OC)ccc5c4CCN3C[C@H]2C[C@@H](OC(=O)/C=C/c2cc(OC)c(OC)c(OC)c2)[C@@H]1OC [compound 568, Rescinnamin]",— (compounds for which there was no clear down regulation even at 50 μg/ml)
10,"O=C1c2c(O)cccc2Cc2cccc(O)c21 [compound 43, Anthralin]",— (compounds for which there was no clear down regulation even at 50 μg/ml)
11,"Cc1nccc2c1[nH]c1cc(O)ccc12.Cl [compound 612, Harmol hydrochloride monohydrate]",11 (compounds for which there was clear down regulation only at 50 μg/ml)
12,"CN1CCC(=C2c3ccccc3Sc3ccccc32)CC1.O=C(O)/C=C\C(=O)O [compound 294, Pimethixene maleate]",11 (compounds for which there was clear down regulation only at 50 μg/ml)
13,"O=c1[nH]c2ccccc2n1C1CCN(CCCC(c2ccc(F)cc2)c2ccc(F)cc2)CC1 [compound 308, Pimozide]",12 (compounds for which there was clear down regulation at 5 μg/ml and 50 μg/ml)
14,"CCOC(=O)Oc1c(OC)cc(C(=O)O[C@@H]2C[C@@H]3CN4CCc5c([nH]c6cc(OC)ccc56)[C@H]4C[C@@H]3[C@H](C(=O)OC)[C@H]2OC)cc1OC [compound 564, Syrosingopine]","13 (compounds for which there was clear down regulation at 0.5 μg/ml, 5 μg/ml, and 50 μg/ml)"
15,"OC(c1ccccc1)(c1ccccc1)C1CCNCC1 [compound 93, Azacyclonol]",— (compounds for which there was no clear down regulation even at 50 μg/ml)
16,"CN(C)CCC=C1c2ccccc2CCc2ccccc21.Cl [compound 74, Amitryptilinehydrochloride]",— (compounds for which there was no clear down regulation even at 50 μg/ml)

row,Compound,"hTLR3 (inhibitory effect, antagonist score)"
1,COC(=O)c1cccc(C(O)(c2ccccc2)c2ccccc2)c1S(=O)(=O)C(C)(C)C [compound 1187],12 (compounds for which there was clear down regulation at 5 μg/ml and 50 μg/ml)
2,COC(=O)c1ccc(C2CC(=O)Nc3c2ccc2ccccc32)cc1 (stereo not shown) [compound 965],12 (compounds for which there was clear down regulation at 5 μg/ml and 50 μg/ml)
3,O=C(c1cccc2c1-c1ccccc1/C2=N\O)N1CCCCC1 [compound 1050],12 (compounds for which there was clear down regulation at 5 μg/ml and 50 μg/ml)
4,Cc1cccc(C2(c3cccc(C)c3)OC(=O)c3ccccc32)c1 [compound 1308],12 (compounds for which there was clear down regulation at 5 μg/ml and 50 μg/ml)
5,"C[N+]12CCC(CC1)C(OC(=O)C(O)(c1ccccc1)c1ccccc1)C2.[Br-] (stereo not shown) [compound 822, Clidinium bromide]",— (compounds for which there was no clear down regulation even at 50 μg/ml)
6,"CC[C@]12CCCN3CCc4c(n(c5ccccc45)[C@](O)(C(=O)OC)C1)[C@@H]32 [compound 636, Epivincamine]",11 (compounds for which there was clear down regulation only at 50 μg/ml)
7,CCOC(=O)c1cc([N+](=O)[O-])cc2c1-c1ccc([N+](=O)[O-])cc1C2=C(C#N)C#N [compound 1039],— (compounds for which there was no clear down regulation even at 50 μg/ml)
8,"COC(=O)[C@H]1[C@H]2C[C@@H]3c4[nH]c5cc(OC)ccc5c4CCN3C[C@H]2C[C@@H](OC(=O)c2cc(OC)c(OC)c(OC)c2)[C@@H]1OC [compound 875, Reserpine]",— (compounds for which there was no clear down regulation even at 50 μg/ml)
9,"CN(C)CCCN1c2ccccc2Sc2ccc(C(F)(F)F)cc21.Cl [compound 53, Triflupromazinehydrochloride]",11 (compounds for which there was clear down regulation only at 50 μg/ml)
10,O=C(O)c1ccccc1NC1CC=CC2=C1C(=O)c1ccccc1C2=O (stereo not shown) [compound 917],12 (compounds for which there was clear down regulation at 5 μg/ml and 50 μg/ml)
11,Cc1cc(OC(=O)C2C3CCCCC32)c(C(C)C)cc1C1(c2cc(C(C)C)c(OC(=O)C3C4CCCCC43)cc2C)OC(=O)c2ccccc21 (stereo not shown) [compound 974],11 (compounds for which there was clear down regulation only at 50 μg/ml)
12,"CN1Cc2c(N)cccc2C(c2ccccc2)C1.O=C(O)/C=C\C(=O)O (stereo not shown) [compound 108, Nomifensine maleate]",— (compounds for which there was no clear down regulation even at 50 μg/ml)
13,Maprotilinehydrochloride [compound 346],11 (compounds for which there was clear down regulation only at 50 μg/ml)
14,O=C(O)c1cccc2c1-c1ccccc1/C2=N/Nc1ccc([N+](=O)[O-])cc1[N+](=O)[O-] [compound 944],11 (compounds for which there was clear down regulation only at 50 μg/ml)
15,COCCCNC(=O)c1ccc2c(c1N)C(=O)c1ccccc1C2=O [compound 1337],11 (compounds for which there was clear down regulation only at 50 μg/ml)
